The subject of this test is UCP3. As to the kind of experiment: Effects of Tempol on gene expression in mice, chip-based microarray of cardiac tissue. The format is in vivo. Conditions: Tempol 5 mg/g of food from 14 to 31 months after birth. Here is the method:
To assess the effects of Tempol on gene expression, Tempol was administered to experimental mice at a dose of 5 mg/g of food from 14 months to 31 months after birth. Mice receiving the same food without the addition of Tempol were used as a negative control. At the age of 31 months, the experimental animals were sacrificed and the hearts were surgically removed. The expression of a broad spectrum of genes in the cardiac tissue was assessed using chip-based microarray technology. Such chips are well known in the art and are widely used to assess gene expression.

Consider `CC1(C)CC(O)CC(C)(C)N1[O]` [Tempol, 4-hydroxy-2,2,6,6-tetramethylpiperidine-1-oxyl], for which, for the setting “cardiac tissue, microarray”, the “expression of UCP3” value was “statistically significant increase in expression”. Further, the “Fold change (UCP3 gene expression after Tempol administration)” value (vs. same food without Tempol, cardiac tissue per text (table title says adipose tissue), P-value 0.00) stood at 1.57.

The values are drawn from patent publication US20220378766A1, “[…] OF A GENE ENCODING AN […] BY TREATING A HUMAN SUBJECT WITH A NITROXIDE” (priority 2021, published 2022).
